Measurements as given in patent US20120059052A1, “PRENYLFLAVONOID FORMULATIONS” (BIOACTIVES, INC., priority 2005, published 2012).

Columns and labels:
Cyp1A1 = target: T1, Cyp1A1 (Homo sapiens, UniProt P04798); details: cDNA-expressed human enzyme; cited from earlier work
T1 sequence (P04798 1-512): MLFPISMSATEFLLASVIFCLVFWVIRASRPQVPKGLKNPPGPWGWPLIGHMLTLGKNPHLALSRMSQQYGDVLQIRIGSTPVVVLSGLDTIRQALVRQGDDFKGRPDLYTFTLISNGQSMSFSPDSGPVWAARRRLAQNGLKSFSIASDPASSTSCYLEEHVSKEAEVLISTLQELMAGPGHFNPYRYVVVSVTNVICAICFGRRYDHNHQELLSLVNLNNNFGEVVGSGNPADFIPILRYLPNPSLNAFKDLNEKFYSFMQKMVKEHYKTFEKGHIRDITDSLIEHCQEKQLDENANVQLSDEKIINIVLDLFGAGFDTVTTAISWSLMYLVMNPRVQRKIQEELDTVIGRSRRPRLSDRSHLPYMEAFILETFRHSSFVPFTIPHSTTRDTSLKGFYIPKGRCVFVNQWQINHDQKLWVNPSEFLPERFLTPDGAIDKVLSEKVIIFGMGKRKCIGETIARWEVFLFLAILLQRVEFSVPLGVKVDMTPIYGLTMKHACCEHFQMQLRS

Cyp1B 1 = target: T2, Cyp1B 1 (Homo sapiens, UniProt Q16678); details: cDNA-expressed human enzyme; cited from earlier work
T2 sequence (Q16678 1-543): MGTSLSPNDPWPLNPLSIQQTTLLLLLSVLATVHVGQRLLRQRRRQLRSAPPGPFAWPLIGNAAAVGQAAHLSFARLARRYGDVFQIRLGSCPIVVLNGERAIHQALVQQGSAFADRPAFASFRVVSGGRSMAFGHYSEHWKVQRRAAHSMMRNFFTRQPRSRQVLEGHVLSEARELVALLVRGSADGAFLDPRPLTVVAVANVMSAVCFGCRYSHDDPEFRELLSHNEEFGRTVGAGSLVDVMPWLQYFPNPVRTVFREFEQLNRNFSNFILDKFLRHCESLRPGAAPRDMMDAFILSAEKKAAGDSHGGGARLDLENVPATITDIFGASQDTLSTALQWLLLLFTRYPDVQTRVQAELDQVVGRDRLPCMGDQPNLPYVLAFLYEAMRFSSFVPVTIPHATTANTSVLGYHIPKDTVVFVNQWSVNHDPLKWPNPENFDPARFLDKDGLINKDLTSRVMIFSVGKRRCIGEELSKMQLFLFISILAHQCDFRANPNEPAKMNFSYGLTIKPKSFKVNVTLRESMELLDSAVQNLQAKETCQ

Cyp1A2 = target: T3, Cyp1A2 (Homo sapiens, UniProt P05177); details: cDNA-expressed human enzyme; cited from earlier work
T3 sequence (P05177 1-516): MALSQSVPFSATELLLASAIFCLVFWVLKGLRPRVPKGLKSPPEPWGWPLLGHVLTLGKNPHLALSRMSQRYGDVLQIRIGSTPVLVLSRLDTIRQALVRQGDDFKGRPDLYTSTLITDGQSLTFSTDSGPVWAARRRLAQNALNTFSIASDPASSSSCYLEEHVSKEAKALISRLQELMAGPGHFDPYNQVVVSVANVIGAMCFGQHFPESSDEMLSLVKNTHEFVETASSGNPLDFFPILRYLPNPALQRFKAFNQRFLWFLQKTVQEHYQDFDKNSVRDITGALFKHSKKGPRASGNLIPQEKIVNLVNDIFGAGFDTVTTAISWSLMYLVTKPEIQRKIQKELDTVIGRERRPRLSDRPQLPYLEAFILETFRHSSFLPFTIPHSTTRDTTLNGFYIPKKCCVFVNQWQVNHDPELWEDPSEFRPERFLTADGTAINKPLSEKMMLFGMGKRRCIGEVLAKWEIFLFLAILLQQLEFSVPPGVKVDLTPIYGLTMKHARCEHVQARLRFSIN

endothelial cells = endothelial cells invading collagen gel, capillary-like tubes; cited from earlier work
HMG-CoA reductase = target: T4, HMG-CoA reductase (Homo sapiens, UniProt P04035); test: HMG-CoA reductase assay in isolated liver microsomes; assay type: biochemical
T4 construct: from tissue; host or cells: liver microsomes
T4 sequence (P04035 1-888): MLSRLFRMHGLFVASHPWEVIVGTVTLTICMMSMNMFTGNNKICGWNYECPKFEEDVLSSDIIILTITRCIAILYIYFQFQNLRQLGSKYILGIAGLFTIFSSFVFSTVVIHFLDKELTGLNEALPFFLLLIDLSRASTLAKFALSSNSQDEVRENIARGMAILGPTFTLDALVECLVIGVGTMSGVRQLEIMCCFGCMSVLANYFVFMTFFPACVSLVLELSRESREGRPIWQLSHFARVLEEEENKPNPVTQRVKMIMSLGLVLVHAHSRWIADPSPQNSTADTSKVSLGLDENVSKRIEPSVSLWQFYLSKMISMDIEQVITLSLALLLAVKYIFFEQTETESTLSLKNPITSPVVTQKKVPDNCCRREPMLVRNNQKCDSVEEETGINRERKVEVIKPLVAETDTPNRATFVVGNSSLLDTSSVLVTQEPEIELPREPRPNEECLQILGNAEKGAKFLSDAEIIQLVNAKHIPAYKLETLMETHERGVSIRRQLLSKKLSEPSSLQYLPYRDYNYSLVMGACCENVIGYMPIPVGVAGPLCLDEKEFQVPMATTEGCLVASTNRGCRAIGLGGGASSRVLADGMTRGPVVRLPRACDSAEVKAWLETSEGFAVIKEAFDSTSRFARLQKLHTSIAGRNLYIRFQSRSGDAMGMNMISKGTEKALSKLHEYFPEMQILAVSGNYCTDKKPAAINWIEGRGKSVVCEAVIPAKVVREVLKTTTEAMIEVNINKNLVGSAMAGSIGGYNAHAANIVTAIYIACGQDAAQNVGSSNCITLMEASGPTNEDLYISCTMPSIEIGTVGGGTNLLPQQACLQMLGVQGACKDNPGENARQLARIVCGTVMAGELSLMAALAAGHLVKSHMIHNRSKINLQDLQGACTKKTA
Protocol: HMG-CoA reductase assays were performed in which increasing concentrations of xanthohumol (1 μM to 100 μM) were added to isolated liver microsomes. Xanthohumol had no effect on HMG-CoA reductase activity. As a positive control, atorvastatin (10 nM and 1 μM) was tested in the same assay, which inhibited reductase activity by 58% and 87% respectively. The protocol followed was as published in Telford et al. ATVB 2002; 22: 1884-1891.

HepG2 cells = test: Incorporation of 14C-acetic acid into cholesterol in HepG2 cells; assay type: cell-based
Protocol: The incorporation of ^14C-acetic acid into cholesterol was examined in HepG2 cells. […] The IC50 was approximately 20 μM. In the same HepG2 cell assay system, atorvastatin (10 nM and 1 μM) inhibited acetate incorporation into cholesterol by 20% and 80% respectively.

Caco-2 cell monolayers [1] = test: Permeability across Caco-2 cell monolayers; assay type: in vitro ADME
Protocol: Percent Recovery=100×((Vr×Cr^final)+(Vd×Cd^final))/(Vd×C0)
• dCr/dt is the slope of the cumulative concentration in the receiver compartment versus time in μMs^−1. • Vr is the volume of the receiver compartment in cm^3. • Vd is the volume of the donor compartment in cm^3. • A is the area of the cell-free insert (1.13 cm^2 for 12-well Transwell). • Cr^final is the cumulative receiver concentration in μM at the end of the incubation period. • Cd^final is the concentration of the donor in μM at the end of the incubation period. • C0 is the initial concentration of the dosing solution in μM.
Each determination was performed in duplicate.

constitutive COX-1 = target: T5, constitutive COX-1 (Ovis aries, UniProt P05979); details: read-out: IC50, inhibition of COX-1; cited from earlier work
T5 sequence (P05979 25-600): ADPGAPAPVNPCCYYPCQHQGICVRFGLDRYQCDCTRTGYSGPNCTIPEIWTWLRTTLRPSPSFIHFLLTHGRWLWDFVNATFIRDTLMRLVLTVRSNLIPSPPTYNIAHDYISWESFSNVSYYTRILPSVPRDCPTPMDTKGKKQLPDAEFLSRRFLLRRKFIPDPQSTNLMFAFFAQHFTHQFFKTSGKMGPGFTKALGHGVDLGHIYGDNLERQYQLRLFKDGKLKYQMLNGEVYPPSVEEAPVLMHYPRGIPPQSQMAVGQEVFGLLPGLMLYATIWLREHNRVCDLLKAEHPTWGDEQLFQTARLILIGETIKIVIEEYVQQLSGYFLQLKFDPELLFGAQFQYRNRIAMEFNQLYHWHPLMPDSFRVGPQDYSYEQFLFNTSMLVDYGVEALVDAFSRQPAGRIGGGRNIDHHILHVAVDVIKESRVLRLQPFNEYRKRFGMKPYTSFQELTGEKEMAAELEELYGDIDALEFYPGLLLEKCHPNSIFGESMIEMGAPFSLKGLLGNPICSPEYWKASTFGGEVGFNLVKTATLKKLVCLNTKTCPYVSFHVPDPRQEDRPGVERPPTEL

inducible COX-2 = target: T6, inducible COX-2 (Homo sapiens, UniProt P35354); details: read-out: IC50, inhibition of COX-2; cited from earlier work
T6 sequence (P35354 18-604): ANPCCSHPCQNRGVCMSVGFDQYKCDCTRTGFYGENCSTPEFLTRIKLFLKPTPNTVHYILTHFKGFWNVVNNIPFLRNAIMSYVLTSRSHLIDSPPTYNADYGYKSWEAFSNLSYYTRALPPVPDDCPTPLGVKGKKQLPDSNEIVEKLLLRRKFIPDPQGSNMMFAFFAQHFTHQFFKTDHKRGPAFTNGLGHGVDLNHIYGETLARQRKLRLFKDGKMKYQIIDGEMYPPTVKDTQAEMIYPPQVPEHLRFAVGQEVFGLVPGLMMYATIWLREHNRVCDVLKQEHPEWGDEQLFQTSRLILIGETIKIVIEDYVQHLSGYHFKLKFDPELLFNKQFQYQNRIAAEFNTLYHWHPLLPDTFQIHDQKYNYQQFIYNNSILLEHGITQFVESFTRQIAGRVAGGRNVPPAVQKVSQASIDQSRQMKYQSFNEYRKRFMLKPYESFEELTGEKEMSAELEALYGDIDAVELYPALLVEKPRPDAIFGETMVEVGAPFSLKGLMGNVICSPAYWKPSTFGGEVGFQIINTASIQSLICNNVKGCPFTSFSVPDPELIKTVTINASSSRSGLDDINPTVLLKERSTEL

[2] = cited from earlier work
[3] = oral doses, animal; cited from earlier work
Caco-2 cell monolayers [4] = test: Caco-2 plate certification with control compounds; assay type: in vitro ADME; details: TW12, passage 63, age 22 days
Protocol: To test the permeability of xanthohumol across Caco-2 cell monolayers, Caco-2 cell monolayers were grown to confluence on collagen-coated, microporous, polycarbonate membranes in 12-well Costar Transwell® plates. Details of the plates and their certification are shown below in Table 3. The test article was also the aqueous xanthohumol formulation, and the dosing concentration was 2 μM in the assay buffer (HBSSg) as in the previous example. Cell monolayers were dosed on the apical side (A-to-B) or basolateral side (B-to-A) and incubated at 37° C. with 5% CO2 in a humidified incubator. Samples were taken from the donor chamber at 120 minutes, and samples from the receiver chamber were collected at 60 and 120 minutes. Each determination was performed in duplicate. Lucifer yellow permeability was also measured for each monolayer after being subjected to the test article to ensure no damage was inflicted to the cell monolayers during the permeability experiment. All samples were assayed for Xanthohumol by LC/MS/MS using electrospray ionization. The apparent permeability (Papp), and percent recovery were calculated as described above.

[5] = human, Caco-2, 120 min, 2 μM, pH 7.4

CC(C)=CCc1c(O)cc(O)c2c1O[C@H](c1ccc(O)cc1)CC2=O [8-prenylnaringenin]
Inhibition of Cyp1A1 (Cyp1A1): strongly inhibit
Inhibition of Cyp1B1 (Cyp1B 1): strongly inhibit
Inhibition of Cyp1A2 (Cyp1A2): strongly inhibit
Effect on angiogenesis in vitro (endothelial cells): inhibits angiogenesis

COc1cc(O)c(CC=C(C)C)c(O)c1C(=O)/C=C/c1ccc(O)cc1 [Xanthohumol, xanthohumol]
Effect on HMG-CoA reductase activity (HMG-CoA reductase; 1 μM to 100 μM, isolated liver microsomes): no effect
Cholesterol synthesis inhibition (HepG2 cells; 0.5 μM to 100 μM): inhibited in a dose-responsive manner
IC50 (HepG2 cells; Homo sapiens, read-out: IC50, cholesterol synthesis): ~20 µM
Effect on incorporation of 14C-acetic acid into cholesterol (HepG2 cells; concentrations below 500 nM): No affect
Significant Efflux (Caco-2 cell monolayers [1]; Caco-2): No
Papp, Average (Caco-2 cell monolayers [1]; [5]): 1.77 10^−6 cm/s
Papp, Rep. 1 (Caco-2 cell monolayers [1]; [5]): 0.94 10^−6 cm/s
IC50 (constitutive COX-1): 17 µM
IC50 (inducible COX-2): 42 µM
Inhibition of Cyp1A1 (Cyp1A1): strongly inhibit
Inhibition of Cyp1B1 (Cyp1B 1): strongly inhibit
Inhibition of Cyp1A2 (Cyp1A2): strongly inhibit
Solubility in water [2]: virtually insoluble
Bioavailability [3]: very low bioavailability

CC(C)c1c(C(=O)Nc2ccccc2)c(-c2ccccc2)c(-c2ccc(F)cc2)n1CC[C@@H](O)C[C@@H](O)CC(=O)O [atorvastatin, reference compound]
inhibition at 0.01 µM (HMG-CoA reductase; 10 nM): 58%
inhibition at 1 µM (HMG-CoA reductase; 1 μM): 87%
inhibition at 0.01 µM (HepG2 cells; Homo sapiens, 10 nM, read-out: Inhibition of acetate incorporation into cholesterol): 20%
inhibition at 1 µM (HepG2 cells; Homo sapiens, 1 μM, read-out: Inhibition of acetate incorporation into cholesterol): 80%

COc1cc(O)c(CC=C(C)C)c2c1C(=O)CC(c1ccc(O)cc1)O2 (stereo not drawn) [isoxanthohumol]
Inhibition of Cyp1A1 (Cyp1A1): strongly inhibit
Inhibition of Cyp1B1 (Cyp1B 1): strongly inhibit
Inhibition of Cyp1A2 (Cyp1A2): strongly inhibit

Lucifer Yellow [reference compound]
Lucifer yellow Papp, post-experiment integrity control (Caco-2 cell monolayers [1]; all monolayers, after exposure to test article): < 0.8 ×10⁻⁶ cm/s
Papp (Caco-2 cell monolayers [4]): 0.13 ×10⁻⁶ cm/s
